Assay: Suppression test of Experimental Example 1: masking and harmonizing effect in a cup, four expert panelists;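 on harmonizing: score 1 means in harmony 0 indefinite and −1 not in harmony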
Conditions: 200 μl pseudo body odor composition of Example 4 and 10 μl perfume on filter papers in sealed about 500 ml cup, after 30 minutes, four expert panelists; for Masking: scale 0-3; for Harmonizing: scale −1 to 1
Protocol: In the present invention, the selection of the above component (I), component (II) and component (III) was carried out as follows. That is, one of the pseudo body odor compositions mentioned above and a target fragrance component were mixed and left at room temperature for 30 minutes. Thereafter, evaluations of the masking and harmonizing effects to the acid odor were carried out by four expert panelists.
After 30 minutes, a hole of about 1 cm in diameter was formed in the aluminum foil and the investigations of masking effect and the harmonizing effect were carried out according to following evaluation criteria by four expert panelists.
3: Excellent in the masking.
2: Substantially excellent in the masking.
1: Slightly sensible of the body odor (sweat odor and armpit odor).
0: Sensible of the body odor (sweat odor and armpit odor) (insufficient in the masking)

Row | Compound | Masking | Harmonizing
1 | CCOC(=O)CC(C)=O [Ethyl acetoacetate] | 3 | 1
2 | CC1=CC(C)C(C=O)CC1 (stereo not drawn) [Tripral, Dimethyl tetrahydrobenzaldehyde] | 3 | 1
3 | CC(C=O)Cc1ccc(C(C)C)cc1 (stereo not drawn) [Cyclamen aldehyde, 2-methyl-3-(4-isopropylphenyl)propanal] | 1.5 points | −1
4 | CC(=O)C1(C)CC2=C(CCCC2(C)C)CC1C (stereo not drawn) [Iso E super, 7-acetyl-1,2,3,4,5,6,7,8-octahydro-1,1,6,7-tetramethyl naphthalene] | 1 | −1
5 | O=C1CCCCCCCCCCCC(=O)OCCO1 [Musk T, ethylene brassylate] | 0.5 points | −1
6 | C=C(C)C1CC=C(C)C(=O)C1 (stereo not drawn) [Example 1-Carvone, 1-Carvone] | 3 | 1
7 | CC(C)CCCC(C)CCO (stereo not drawn) [Dimethyl octanol] | 1.5 points | 0
8 | CC(=O)CCC=C(C)C [Methyl heptenone] | 3 | 1
9 | CCCCCC1CCC(=O)O1 (stereo not drawn) [γ-Nonalactone] | 2.5 points | 1

From US20060159639A1, “Pseudo body odor composition and perfume composition for inhibiting body odor” (priority 2003, published 2006)
